Patent US20180009797A1, “AZA-ARYL 1H-PYRAZOL-1-YL BENZENE SULFONAMIDES” (ChemoCentryx, Inc., priority 2016, published 2018)

Each molecule was assayed against T1, CCR(9) (Homo sapiens, UniProt P51686) (assay: serum chemotaxis (serum migration) assay, MOLT-4 cells in human serum, TECK). Conditions: read-out: A2.
T1 construct: CCR(9)-expressing cells such as T cell line MOLT-4 cells; host or cells: MOLT-4 T cell line
T1 sequence (P51686 1-369): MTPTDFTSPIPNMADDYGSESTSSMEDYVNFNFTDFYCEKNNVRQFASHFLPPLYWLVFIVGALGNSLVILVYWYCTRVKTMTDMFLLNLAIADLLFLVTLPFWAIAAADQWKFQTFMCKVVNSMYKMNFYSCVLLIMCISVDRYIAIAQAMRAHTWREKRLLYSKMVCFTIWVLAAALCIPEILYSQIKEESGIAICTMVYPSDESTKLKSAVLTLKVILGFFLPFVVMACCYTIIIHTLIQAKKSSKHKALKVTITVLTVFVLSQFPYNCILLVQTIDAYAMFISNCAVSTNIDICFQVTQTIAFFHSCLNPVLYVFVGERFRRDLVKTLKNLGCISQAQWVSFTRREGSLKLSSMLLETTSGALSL
Type: cell-based
Method: In vitro cell chemotaxis assays can be performed (but are not limited to this format) using the 96-well microchamber (called ChemoTX™). The ChemoTX™ system is well known to those skilled in the art as a type of chemotactic/cell migration instrument. In this assay, CCR(9)-expressing cells (such as MOLT-4) are first incubated with a compound of interest, such as a possible CCR(9) antagonist at increasing concentrations. Typically, fifty thousand cells per well are used, but the amount can range from 10^3-10^6 cells per well. The chemokine ligand (for example, CCR(9) ligand TECK, typically at 50 nM (but can range from 5-100 nM)), is placed at the lower chamber and the migration apparatus is assembled. Twenty microliters of test compound-treated cells are then placed onto the membrane. Migration is allowed to take place at 37° C. for a period of time, typically 2.5 hours for CCR(9). At the end of the incubation, the number of cells that migrated across the membrane into the lower chamber is then quantified. The efficacy of a compound as an inhibitor of chemokine-mediated cell migration can be calculated as an IC50 (the concentration needed to reduce cell migration by 50%) or IC90 (for 90% inhibition).
MOLT-4 cells were obtained from the American Type Culture Collection (Manassas, Va.) and cultured in RPMI tissue culture medium supplemented with 10% fetal calf serum (FCS) in a humidified 5% CO2 incubator at 37° C. Recombinant human chemokine proteins TECK was obtained from R&D Systems (Minneapolis, Minn.). ChemoTX® chemotaxis microchambers were purchased from Neuro Probe (Gaithersburg, Md.). CyQUANT® cell proliferation kits were purchased from Molecular Probes (Eugene, Oreg.). Calcium indicator dye Fluo-4 AM was purchased from Molecular Devices (Mountain View, Calif.).
A serum chemotaxis assay was used to determine the efficacy of potential receptor antagonists at blocking the migration mediated through chemokine receptors, such as CCR(9). This assay was performed using the ChemoTX® microchamber system with a 5-μm pore-sized polycarbonate membrane. MOLT-4 cells were collected by centrifugation at 400×g at room temperature, then suspended at 50 million/ml in human serum, containing 50 mM HEPES (final pH of 7.2). The compound being tested or an equivalent volume of its solvent (DMSO) was then added to the cell/serum mixture at a final DMSO concentration of 0.125% (v/v), and this mixture was then incubated together at 37° C. for one hour. Separately, recombinant human TECK was diluted with chemotaxis buffer (HBSS+0.1% BSA), generally spanning a range from 0.1 nM to 500 nM, after which 29 μl of diluted chemokine was placed in the lower wells of the ChemoTX® plate. The 5-μm (pore size) polycarbonate membrane was placed onto the plate, and 20 μL of the cell/compound mixture was transferred onto each well of the membrane. The plates were incubated at 37° C. for 90 minutes, after which the polycarbonate membranes were removed and 5 μl of the DNA-intercalating agent CyQUANT (Invitrogen, Carlsbad, Calif.) was added to the lower wells. The amount of fluorescence, corresponding to the number of migrated cells, was measured using a Spectrafluor Plus plate reader (TECAN, San Jose, Calif.).
The A2 values were calculated from the following equation, comparing the efficacy of the test compound with that of the DMSO-only control at equi-active chemokine levels:
Log(A2)=log [drug(M)]−log [(A′/A)−1]
where A reflects the potency of the agonist in the absence of antagonist and […] reflects the potency of the agonist in the presence of antagonist at a given concentration of drug ([drug(M)]).

SMILES	EC50 [nM]
Cc1cc(NS(=O)(=O)c2ccc(C(C)(C)C)cc2)n(-c2cccc3cnccc23)n1	501 to 2500
Cc1ccc2c(-n3nc(C)cc3NS(=O)(=O)c3ccc(C(C)(C)C)cc3)cccc2n1	< 500
Cc1cc(NS(=O)(=O)c2ccc(OC(F)(F)F)cc2)n(-c2cccc3ncccc23)n1	501 to 2500
CC(C)c1ccc(S(=O)(=O)Nc2cc(C(F)F)nn2-c2cccc3ncccc23)cc1	501 to 2500
CC(C)(C)c1ccc(S(=O)(=O)Nc2ccnn2-c2cccc3ncccc23)cc1	> 2500
CC(C)Oc1ccc(S(=O)(=O)Nc2cc(CF)nn2-c2cccc3ncccc23)cc1	501 to 2500
Cc1cc(NS(=O)(=O)c2ccc(C(C)(C)C)cc2)n(-c2nccc3ccccc23)n1	501 to 2500
Cc1cc(NS(=O)(=O)c2ccc(OC(C)C)cc2)n(-c2cccc3cnccc23)n1	501 to 2500
CC(C)c1ccc(S(=O)(=O)Nc2cc(C(F)(F)F)nn2-c2cccc3cnccc23)cc1	501 to 2500
CC(C)Oc1ccc(S(=O)(=O)Nc2cc(C(F)(F)F)nn2-c2cccc3cnccc23)cc1	501 to 2500
CC(C)Oc1ccc(S(=O)(=O)Nc2cc(C(F)F)nn2-c2cccc3ncccc23)cc1	< 500
Cc1cc(NS(=O)(=O)c2ccc(C(C)(C)C)cc2)n(-c2cccc3c(N)nccc23)n1	501 to 2500
Cc1cc(NS(=O)(=O)c2ccc(C(C)(C)C)cc2)n(-c2nncc3ccccc23)n1	501 to 2500
Cc1cc(NS(=O)(=O)c2ccc(C(C)C)cc2)n(-c2cccc3cnccc23)n1	501 to 2500
Cc1cc(NS(=O)(=O)c2ccc(C(C)(C)C)cc2)n(-c2cncc3ccccc23)n1	501 to 2500
CC(C)c1ccc(S(=O)(=O)Nc2cc(C(F)(F)F)nn2-c2cccc3ncccc23)cc1	501 to 2500
Cc1cc(NS(=O)(=O)c2ccc(C(C)(C)C)cc2)n(-c2nccc3ncccc23)n1	501 to 2500
CC(C)Oc1ccc(S(=O)(=O)Nc2cc(C(F)(F)F)nn2-c2cccc3ncccc23)cc1	> 2500
Cc1cc(NS(=O)(=O)c2ccc(C(C)(C)C)cc2)n(-c2n[nH]c(=O)c3ccccc23)n1	501 to 2500
COc1cnc(-n2nc(C)cc2NS(=O)(=O)c2ccc(C(C)(C)C)cc2)c2ccccc12	501 to 2500
Cc1cc(NS(=O)(=O)c2ccc(C(C)(C)C)cc2)n(-c2cnnc3ccccc23)n1	501 to 2500
Cc1cc(NS(=O)(=O)c2ccc(C(C)(C)C)cc2)n(-c2cnc(N)c3ccccc23)n1	501 to 2500
Cc1cc(NS(=O)(=O)c2ccc(C(C)(C)C)cc2)n(-c2ccnc3c(F)cccc23)n1	501 to 2500
Cc1cc(NS(=O)(=O)c2ccc(C(C)(C)C)cc2)n(-c2ncc(Cl)c3ccccc23)n1	> 2500
Cc1cc(NS(=O)(=O)c2ccc(C(C)(C)C)cc2)n(-c2cccc3c2ccc[n+]3[O-])n1	501 to 2500
Cc1cc(NS(=O)(=O)c2ccc(C(C)(C)C)cc2)n(-c2cccc3c[n+]([O-])ccc23)n1	> 2500
CCOc1ccc(-n2nc(C)cc2NS(=O)(=O)c2ccc(C(C)(C)C)cc2)c2cccnc12	501 to 2500
COc1ccc(-n2nc(C)cc2NS(=O)(=O)c2ccc(C(C)(C)C)cc2)c2cccnc12	< 500
Cc1cc(NS(=O)(=O)c2ccc(C(C)(C)C)cc2)n(-c2ccc(C#N)c3ncccc23)n1	501 to 2500

Second part, the molecule after the results:

EC50 [nM]	SMILES
501 to 2500	CC(C)(C)c1ccc(S(=O)(=O)Nc2cc(C(F)(F)F)nn2-c2cccc3ncccc23)cc1
> 2500	Cc1cc(NS(=O)(=O)c2ccc(OCC(C)C)cc2)n(-c2cccc3ncccc23)n1
501 to 2500	Cc1cc(NS(=O)(=O)c2ccc(OC(C)C)cc2)n(-c2cccc3ncccc23)n1
501 to 2500	Cc1cc(NS(=O)(=O)c2ccc(C(C)C)cc2)n(-c2cccc3ncccc23)n1
501 to 2500	CCC(C)(C)c1ccc(S(=O)(=O)Nc2cc(C)nn2-c2cccc3ncccc23)cc1
501 to 2500	CC(C)(C)c1ccc(S(=O)(=O)Nc2cc(C#N)nn2-c2cccc3ncccc23)cc1
< 500	CC(C)(C)c1ccc(S(=O)(=O)Nc2cc(CF)nn2-c2cccc3ncccc23)cc1
< 500	COc1ccc(-n2nc(C)cc2NS(=O)(=O)c2ccc(C(C)(C)C)c(F)c2)c2cccnc12
< 500	CC(C)(C)c1ccc(S(=O)(=O)Nc2cc(C(F)F)nn2-c2cccc3ncccc23)cc1
< 500	COCc1cc(NS(=O)(=O)c2ccc(C(C)(C)C)cc2)n(-c2cccc3ncccc23)n1
< 500	Cc1cc(NS(=O)(=O)c2ccc(C(C)(C)C)cc2)n(-c2ccc(Cl)c3ncccc23)n1
501 to 2500	Cc1cc(NS(=O)(=O)c2ccc(C(C)(C)C)cc2F)n(-c2cccc3ncccc23)n1
< 500	Cc1cc(NS(=O)(=O)c2ccc(C(C)(C)C)cc2)n(-c2cccc3nc(N)ccc23)n1
501 to 2500	Cc1cc(NS(=O)(=O)c2ccc(C(C)(C)C)cc2)n(-c2ccnc3ccccc23)n1
501 to 2500	Cc1cc(NS(=O)(=O)c2ccc(C(C)(C)C)cc2)n(-c2ccc(C)c3ncccc23)n1
501 to 2500	Cc1cc(NS(=O)(=O)c2ccc(C(C)(C)C)cc2)n(-c2cc(N)nc3ccccc23)n1
< 500	Cc1cc(NS(=O)(=O)c2ccc(C(C)(C)C)c(F)c2)n(-c2cccc3ncccc23)n1

EC50 [nM]	SMILES
501 to 2500	CC(C)(C)c1ccc(S(=O)(=O)Nc2cc(C(F)F)nn2-c2cccc3ncccc23)cc1F
501 to 2500	Cc1cc(-n2nc(C)cc2NS(=O)(=O)c2ccc(C(C)(C)C)cc2)c2ccccc2n1
501 to 2500	Cc1cc(NS(=O)(=O)c2ccc(C(C)(C)C)c(F)c2)n(-c2ccc(N)c3ncccc23)n1
501 to 2500	Cc1cc(NS(=O)(=O)c2ccc(C(C)(C)C)cc2)n(-c2ccnc3cc(F)ccc23)n1
< 500	CC(C)(C)c1ccc(S(=O)(=O)Nc2cc(CF)nn2-c2cccc3ncccc23)cc1F
< 500	Cc1cc(NS(=O)(=O)c2ccc(C(C)(C)C)c(F)c2)n(-c2cccc3nc(N)ccc23)n1
501 to 2500	Cc1cc(NS(=O)(=O)c2ccc(C(C)(C)C)cc2)n(-c2ccc(F)c3ncccc23)n1
501 to 2500	Cc1cc(NS(=O)(=O)c2ccc(C(C)(C)C)c(Cl)c2)n(-c2cccc3ncccc23)n1
< 500	Cc1cc(NS(=O)(=O)c2cc(F)c(C(C)(C)C)c(F)c2)n(-c2cccc3ncccc23)n1
< 500	Cc1cc(NS(=O)(=O)c2ccc(C(C)(C)C)cc2)n(-c2cccc3ncccc23)n1
501 to 2500	Cc1cc(-n2nc(C)cc2NS(=O)(=O)c2ccc(C(C)(C)C)cc2)c2cccnc2c1
501 to 2500	Cc1cc(NS(=O)(=O)c2ccc(C(C)(C)C)cc2)n(-c2ccc(Br)c3ncccc23)n1
501 to 2500	Cc1cc(NS(=O)(=O)c2ccc(OC(C)C)c(F)c2)n(-c2cccc3ncccc23)n1
< 500	Cc1cc(NS(=O)(=O)c2ccc(C(C)(C)C)c(F)c2)n(-c2ccc(Br)c3ncccc23)n1
< 500	Cc1cc(NS(=O)(=O)c2ccc(C(C)(C)C)cc2)n(-c2ccc(N)c3ncccc23)n1
< 500	Cc1cc(NS(=O)(=O)c2ccc(C(C)(C)C)c(F)c2)n(-c2ccc(C#N)c3ncccc23)n1
